Experimental data as given in patent publication US10551379B2, “Methods and compositions for improving detection and/or capture of a target entity” (PRESIDENT AND FELLOWS OF HARVARD COLLEGE, priority 2013, dated 2020).

Legend:
[1] = target: T1, FcMBL (Homo sapiens, UniProt P11226); assay: Binding affinity (Kd) of medium affinity ligands for FcMBL; conditions: read-out: Kd (medium affinity ligand of FcMBL)
Source text: (§1) Without wishing to be bound by theory, this reduced background can be related to the prevention of FcMBL low affinity binding to erythrocytes (or other endogenous components in blood) by the medium affinity sugar that in turn can be displaced by the higher affinity targets such as mannan, lipopolysaccharides (LPS), and/or a microbe or fragment thereof.

[2] = target: T1, FcMBL; assay: FcMBL ELISA capture in blood: background and haemocyte binding (FIGS. 3A-3B); conditions: for background of the FcMBL ELISA: ligand added to FcMBL prior to the capture of mannan in the presence of blood
Method: FIGS. 3A-3B are data graphs showing effects of adding a blocking agent (e.g., ˜10 mM glucose) on binding of a target entity (e.g., LPS) or an interfering agent (e.g., haemocytes) to a target-binding agent (e.g., FcMBL beads) in donor blood.
as §1

T1 sequence (P11226 with tags, fused parts or gaps limits assumed): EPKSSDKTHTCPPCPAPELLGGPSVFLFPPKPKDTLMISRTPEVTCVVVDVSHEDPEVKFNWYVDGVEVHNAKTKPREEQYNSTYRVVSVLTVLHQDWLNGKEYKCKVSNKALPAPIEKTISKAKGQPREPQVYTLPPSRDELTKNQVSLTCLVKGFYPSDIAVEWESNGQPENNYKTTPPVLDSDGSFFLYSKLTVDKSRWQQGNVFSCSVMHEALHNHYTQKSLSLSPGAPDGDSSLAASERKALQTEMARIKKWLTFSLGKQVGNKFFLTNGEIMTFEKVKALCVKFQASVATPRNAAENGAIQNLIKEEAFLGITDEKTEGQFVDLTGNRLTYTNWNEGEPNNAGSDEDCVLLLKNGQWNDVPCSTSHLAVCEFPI

OC[C@H]1O[C@H](O[C@H]2[C@H](O)[C@@H](O)C(O)O[C@@H]2CO)[C@H](O)[C@@H](O)[C@@H]1O (mixture of isomers) [maltose]
Kd [1]: 15 mM | background of the FcMBL ELISA [2]: decreases the background

CC(=O)N[C@H]1C(O)O[C@H](CO)[C@@H](O)[C@@H]1O[C@H](C)C(=O)O (some centres unmarked) [N-acetyl Muramic acid]
Kd [1]: 17 mM | background of the FcMBL ELISA [2]: decreases the background

mannan
background by binding of erythrocytes or other endogenous blood components to FcMBL ([2]; addition of a small amount of mannan): decrease the background
